{"source": "paper PMC5722318", "about": "“Absence of anti-hypocretin receptor 2 autoantibodies in post pandemrix narcolepsy cases” (PLoS ONE, 2017)", "test_system": "DQ0602", "assay_type": "binding, human", "conditions": "for % Read #1 / Read #1: replicate 1; for % Average: mean of two reads; for % Read #2 / Read #2: replicate 2; for Average: mean of the two raw reads; for Read #1 / Read #2: raw signal read", "key": {"[1]": {"conditions": "% of Bio-EBV binding, first assay (02/04/2016, 07/15/2016 or 08/11/2016, by peptide)"}, "[2]": {"conditions": "% of Bio-EBV binding, repeat assay (07/19/2016, 07/18/2016 or 08/12/2016, by peptide)"}, "[3]": {"conditions": "first assay (02/04/2016, 07/15/2016 or 08/11/2016, by peptide)"}, "[4]": {"conditions": "repeat assay (07/19/2016, 07/18/2016 or 08/12/2016, by peptide)"}}, "note": "Read-outs that look alike come from different tables or passages of the source.", "data": [{"sequence": "HDSDKGVTAACPH [HA143-155 146D, synthetic 13-mer hemagglutinin peptide containing mutated 146D]", "values": [{"measurement": "Average (two assays)", "value": 86.9741, "unit": "%"}, {"measurement": "% Read #1", "setting": "% of Bio-EBV binding (Bio-EBV average = 100), first assay (02/04/2016, 07/15/2016 or 08/11/2016, by peptide)", "value": 75.8456, "unit": "%"}, {"measurement": "% Average", "setting": "[1]", "value": 83.2638, "unit": "%"}, {"measurement": "% Average", "setting": "[2]", "value": 90.6844, "unit": "%"}, {"measurement": "% Read #1", "setting": "[2]", "value": 90.6154, "unit": "%"}, {"measurement": "% Read #2", "setting": "[1]", "value": 90.682, "unit": "%"}, {"measurement": "% Read #2", "setting": "[2]", "value": 90.7533, "unit": "%"}, {"measurement": "Average", "setting": "[3]", "value": 15669}, {"measurement": "Average", "setting": "[4]", "value": 15132.5}, {"measurement": "Read #1", "setting": "first assay (02/04/2016, 07/15/2016 or 08/11/2016, by peptide), competition against Bio-EBV epitope", "value": 14273}, {"measurement": "Read #1", "setting": "[4]", "value": 15121}, {"measurement": "Read #2", "setting": "[3]", "value": 17065}, {"measurement": "Read #2", "setting": "[4]", "value": 15144}]}]}
